From patent US8440614B2, “Polymer microspheres/nanospheres and encapsulating therapeutic proteins therein” (priority 2000, dated 2013)

What was measured:
[1] = Antigenicity by sandwich-type capture ELISA after SCCNC treatment; type: binding
Description: Experiments were performed to encapsulate tetanus toxoid (TT) and diphtheria toxoid (DT) vaccine antigens in 50:50 PLGA polymer microspheres formed by SCCNC carbon dioxide and propane. In these tests, DT and TT were each separately treated with supercritical carbon dioxide with 10% (v/v) cosolvent ethanol, and near-critical propane in the presence of PLGA. The pressure and temperature were around 3,000 psig and 30-35° C. respectively. The protein and antigenicity activities were performed by micro BCA assay and a sandwich-type capture ELISA [Gupta, R. K., Siber, G. R., Alonso, M. J. and Langer, R., in Modern Approaches To New Vaccines Including Prevention of AIDS. Ed. by Ginsberg, H. S., Brown, F., Chanock, R. M. and Lerner, R. A. Cold Spring Harbor Laboratory, Press, 1993] assay.

[2] = system: chronic diabetic BB/W or male rats; test: In vivo release of insulin: glucose concentration in diabetic rats; conditions: for Effect on glucose levels (in words): bled 0.5 to 16 hrs after treatment
Description: A preliminary study with SCCNC polymer nanoencapsulated insulin was conducted in diabetic rats. Three groups of four chronic diabetic BB/W or male rats were used to evaluate efficacy on nanoencapsulated insulin (MS-29). One group [A] was given 2 ml of the test formulation (MS-29) using the standard gavage method. The second group [B] received oral non-encapsulated insulin, administered by gavage at the concentration based on the animals' day of diabetes onset. A third group [C] received injected insulin (PZI, Eli Lilly) therapy at the dose consistent with their day of onset of diabetes. The animals were bled prior to treatment and at 0.5, 1, 2, 4, 8, and 16 hrs after treatment.

[3] = aqueous protein; cited from earlier work
[4] = treated with SCCNC carbon dioxide/ethanol mixtures

Substance	ELISA (Lf/mL), antigenicity ([1]; toxoid in PLGA microspheres formed by different SCCNC, around 3,000 psig, 30-35° C.) [Lf/mL]	Percent Change in Glucose Concentration ([2]; 0.5 hr post-treatment)	Percent Change in Glucose Concentration ([2]; 1 hr post-treatment) [%]	Percent Change in Glucose Concentration ([2]; 2 hr post-treatment) [%]	Percent Change in Glucose Concentration ([2]; 4 hr post-treatment)	Percent Change in Glucose Concentration ([2]; 8 hr post-treatment)	Percent Change in Glucose Concentration ([2]; 16 hr post-treatment)	Effect on glucose levels (in words) [2]	Antigenicity after treatment (in words) [1, 4]	Antigenicity after treatment (in words) ([1]; treated with near-critical propane)	pH levels at which the toxoid will denature [3]
4: Tetanus toxoid, Control [Sample 4]	9.0										
Injected Insulin: injected insulin (PZI, Eli Lilly), positive control		−47.4%	−62.7	−71.8	−37.9%	−48.5%	−37.6%	statistical decrease in glucose levels at all times measured post treatment			
Oral Insulin: oral non-encapsulated insulin, administered by gavage		+2.9%	−4.6	−24.4	+2.8%	+7.5%	+47.3%	only showed a statistical decrease in the level of glucose at one time point, 2 hours			
diphtheria toxoid									lost most of their antigenicity	did little damage	below 5.0
tetanus toxoid: tetanus toxoid (TT) vaccine antigen									lost most of their antigenicity		below 5.0
